Measurements from patent publication US20110124032A1, “Methods and Compositions for Treating Carcinoma Stem Cells” (priority 2008, published 2011).

How the values were obtained:
[1] = tested on: Thy1+CD24+Lin− CSC-enriched cells from MMTV-Wnt-1 breast tumors; assay: In vitro colony assay (clonogenic survival), CSC-enriched cells; assay type: cell-based, mouse
Description: Given the overexpression of genes involved in GSH synthesis by CSCs, we wished to assess the sensitivity of these cells to ROS elevation via pharmacologic depletion of GSH. Exposure of Thy1^+CD24^+Lin″ CSC-enriched cells to Buthionine Sulfoximine (BSO), which inhibits glutamate-cysteine ligase, decreased their colony forming ability by approximately three fold (FIG. 4d). Finally, we asked if GSH depletion would radiosensitize CSCs. […] The mechanism leading to low ROS levels in some CSCs appears to be at least partially due to the increased production of free radical scavengers. […] The low ROS subset found in the various stem cell populations may also represent a quiescent subpopulation. […]
Cells were analyzed, collected by FACS, and injected into recipient mice as described with minor modifications from mouse mammary glands, human breast cancers, human head and neck cancers, and MMTV-Wnt-1 mouse tumors. […] For intracellular ROS analysis, cells were loaded with 10 μM DCF-DA (Invitrogen), incubated at 37° C. for 30 min, and immediately analyzed by flow cytometry. […] DNA damage was evaluated using the single-cell gel electrophoresis assay under alkaline conditions. […] After reverse transcription, genes were pre-amplified (22 cycles) using the same Taqman primers (Applied Biosystems) used for quantification. Products were analyzed using qPCR DynamicArray microfluidic chips (Fluidigm). […]

[2] = tested on: “Not Thy1+CD24+” Lin− non-tumorigenic cells (NTCs) from MMTV-Wnt-1 breast tumors; assay: In vitro colony assay (clonogenic survival after ionizing radiation), non-tumorigenic cells; assay type: cell-based, mouse; settings: 10 mM tempol for 15 minutes prior to irradiation, drug then removed; FIG. 4c
Description: In order to pharmacologically manipulate ROS levels separately in CSCs and NTCs, we employed in vitro culture conditions that allowed both cell populations to produce colonies upon co-culture with irradiated feeder cells. […] When exposed to 2 Gy, a dose commonly administered clinically during daily treatments of breast cancer patients, 2.0-fold+/−0.2 more CSC-enriched colonies survived than NTC colonies. Next, we attempted to radioprotect NTCs by exposing them to the nitroxide antioxidant tempol.
Cells were analyzed, collected by FACS, and injected into recipient mice as described with minor modifications from mouse mammary glands, human breast cancers, human head and neck cancers, and MMTV-Wnt-1 mouse tumors. […] For intracellular ROS analysis, cells were loaded with 10 μM DCF-DA (Invitrogen), incubated at 37° C. for 30 min, and immediately analyzed by flow cytometry. […] DNA damage was evaluated using the single-cell gel electrophoresis assay under alkaline conditions. […] After reverse transcription, genes were pre-amplified (22 cycles) using the same Taqman primers (Applied Biosystems) used for quantification. Products were analyzed using qPCR DynamicArray microfluidic chips (Fluidigm). […] After 24-48 hrs, the media was replaced with serum-free Epicult B, and colonies counted ˜7 days later. […] Levels of significance were determined by Student's t-tests using (=0.05. […]

Row | Compound | Clonogenic survival after ionizing radiation (radiosensitization) ([1]; 1 mM BSO 24 hour pretreatment, removed prior to irradiation, 3 Gy, FIG. 4e) | Decrease in colony forming ability ([1]; 24 hour pre-treatment with 1 mM BSO, no irradiation, FIG. 4d) | Clonogenic survival of NTCs after irradiation (radioprotection) [2]
1 | CCCCS(=N)(=O)CC[C@H](N)C(=O)O (stereo partly drawn) [BSO, L-S,R-Buthionine Sulfoximine] | significant radiosensitization | approximately three | –
2 | CC1(C)CC(O)CC(C)(C)N1[O] [tempol] | – | – | radioprotected NTCs, and resulted in survival levels similar to those seen in the CSC-enriched population
